Non-standard residues stand in square brackets, D forms with d. Residues, ends and D or L forms follow the SMILES beside them. *: point of attachment. Hexanoyl = CCCCCC(=O)*; Ahx = NCCCCCC(=O)O
Columns and labels:
ERK (Thr202/Tyr204) = assay: Phospho-ERK HTRF assay in HEK293 cells; type: cell-based, human; details: HEK293, subthreshold HGF 0.1 ng/mL + fosgo-AM 1 µM, vs HGF alone
Excerpt: To determine phosphoactivation status of the intracellular signaling molecules ERK (Thr202/Tyr204) or AKT (Ser473), we used homogenous time-resolved fluorescence (HTRF) kits to assess phosphorylation status based on the energy transfer between donor and acceptor phospho-ERK (pERK) or phospho-AKT (pAKT) antibodies. HTRF kit processing for pERK (Phospho-ERK [Thr202/Tyr204] cellular Advanced kit, #64AERPEG, Cisbio, Codolet, France) and pAKT (Phospho-AKT [Ser473] cellular kit, #64AKSPEG, Cisbio, Codolet, France) were carried out per manufacturer instructions. In brief, HEK293 cells were grown at 37 °C, 5% CO2 in DMEM + 10% FBS until approximately 80% confluent. Cells were seeded in polystyrene-treated 96-well cell culture plates at approximately 50,000 cells/well and cultured overnight in 50 µL serum-free growth media. […] Fluorescence emission at 2 different wavelengths (665 nm and 620 nm) were measured on an Envision plate reader (PerkinElmer, Waltham, Massachusetts), and the HTRF ratio of the acceptor and donor emission signals for each well was calculated as follows: HTRF ratio = (665 nm/620 nm) × 10,000. […] Data were assessed for normality (Shapiro–Wilk) and homoscedasticity (Brown-Forsythe). Statistical significance was determined by one-way analysis of variance (ANOVA) with Tukey’s multiple comparison post-test. […]

MDCK cells = assay: MDCK cell scatter behavior assay; type: cell-based, canine; details: HGF 10 ng/mL + fosgo-AM 10 pM, 100 pM and 1 nM, 24 h, vs HGF alone
Method: Madin-Darby canine kidney (MDCK, ATCC CCL-34) cells were grown at 37 °C, 5% CO2 in Eagle’s Minimum Essential Medium (EMEM) + 10% FBS in T-75 flasks until 80% confluent. Cells were then plated at 1400 cells/well in black-walled, clear-bottom 96-well plates and grown at 37 °C under 5% CO2 for 24 h. Growth media were replaced by serum-free media for 2 h before treatment. Treatments containing HGF and fosgo-AM were made in serum-free media and applied in quintuplicates for 24 h at 37 °C under 5% CO2. Cells were then fixed in chilled 100% EtOH at 4 °C for 20 min and then stained with wheat germ agglutinin conjugated to CF488 (WGA488, Biotium, 29,022–1, Fremont, California) at […] in phosphate-buffered saline (PBS) for 30 min at RT to visualize whole-cell surfaces. Cultures were then imaged with an iCys instrument (iCyte, Thor Labs, Newton, New Jersey) and analyzed with the ImageJ (National Institutes of Health) particle count feature. Scattering behavior was quantified by normalizing particle counts against total stained area. […] Data were assessed for normality (Shapiro–Wilk) and homoscedasticity (Brown-Forsythe). The statistical difference from HGF alone was determined by one-way ANOVA with Dunnett’s multiple comparison post-test with an alpha value of 0.05 (Prism, GraphPad).

[1] = test system: primary rat hippocampal neurons; assay: Synaptogenesis assay (synaptobrevin-II staining); type: cell-based; details: 8 days, vs vehicle
Method: On day 0, rat hippocampal neurons from newborn pups were isolated and cultured in brain neuronal culture medium (neurobasal medium supplemented with 5% FBS, 2% B-27 supplement, and 0.003% gentamycin) at 37 °C under 5% CO2. At 1 day in vitro (DIV1), cells were transferred to a poly-D-lysine–coated 24-well plate at approximately 10,000 cells/well. Cells were then grown in […] of serum-free medium and treated with the following: 0.1% dimethyl sulfoxide (DMSO; vehicle), 10 nM dihydrotestosterone (positive control), 10 nM fosgo-AM, 1 nM fosgo-AM, 5 ng/ml HGF, or 5 ng/ml HGF + 1 nM fosgo-AM. All treatments contained a final concentration of 0.1% DMSO. For the neurite outgrowth assay, treatment media were refreshed on DIV3, and cells were processed for analysis on DIV4. For the synaptogenesis assay, treatment media were refreshed on DIV3 and DIV6, and cells were processed for analysis on DIV8. Processing for both the neurite outgrowth and the synaptogenesis assays was performed as follows: media were removed, and cells were fixed with 100% methanol for 20 min at RT before methanol was aspirated and each well was washed twice with Dulbecco’s phosphate-buffered saline (DPBS). Cells were permeabilized using 0.02% […] (ThermoFisher, Waltham, Massachusetts) in DPBS for 2 min at RT without shaking, and plates were blocked with 5% bovine serum albumin (BSA) in DPBS for 1 h at RT. […] Ten images of single cells from a total of 2 assays were analyzed using NeuroJ plug-in for ImageJ to assess neurite outgrowth, as neurite length and the number of branches per neuron were counted for each cell. For the synaptogenesis assay, synaptic count (number of synapses) and synaptic strength (relative abundance of presynaptic vesicles per synapse as measured by synaptobrevin-II fluorescence intensity) were quantified for each cell. Data were assessed for normality (Shapiro–Wilk) and homoscedasticity (Brown-Forsythe). […]

CCCCCC(=O)N[C@@H](Cc1ccc(O)cc1)C(=O)N[C@H](C(=O)NCCCCCC(N)=O)[C@@H](C)CC [fosgo-AM] (Hexanoyl-Tyr-Ile-[Ahx]-NH2)
pERK levels (ERK (Thr202/Tyr204)): significant increase | cell scattering behavior (MDCK cells): significant cell scattering | number of synapses (synaptic count) ([1]; 1 nM fosgo-AM + 5 ng/mL HGF): significantly increased the number of synapses | synaptobrevin-II immunofluorescence intensity (synaptic strength) ([1]; 1 nM fosgo-AM + 5 ng/mL HGF): significantly enhanced immunofluorescence intensity of synaptobrevin-II | synaptobrevin-II immunofluorescence intensity (synaptic strength) ([1]; 1 nM): significantly enhanced immunofluorescence intensity of synaptobrevin-II

From paper PMC10121968, “Fosgonimeton, a Novel Positive Modulator of the HGF/MET System, Promotes Neurotrophic and Procognitive Effects in Models of Dementia” (Neurotherapeutics, 2022)
